Data from patent US10022308B2, “Wipe and methods for improving skin health” (Kimberly-Clark Worldwide, Inc., priority 2003, dated 2018).

Assays:
[1] = tested on: Lactobacillus acidophilus (ATCC #:314); assay: Adhesion assay for Lactobacillus acidophilus on synthetic skin substrate; type: cell-based; details: 50 μl of 10% botanical stock in TSB + 50 μl bacteria, 3 h at 33° C. or 37° C., VITRO-SKIN, AlamarBlue
Experimental: The protocols for testing the ability of botanical compounds to elicit any of these desired effects are set forth in the Examples. In general, the ability of a botanical compound to affect the adherence of an organism to skin is determined by comparing the adherence of the organism to skin in the presence of the botanical compound, to the adherence of the organism to skin in the absence of the botanical compound. If the amount of adherence in the presence of the botanical compound is 150% or greater than the amount of adherence in the absence of the botanical compound, then the botanical compound is an adherence promoter for that organism. […]
(§1) Results are given in Table 1, which gives the percent adherence to the skin of P. mirabilis, S. epidermidis, P. aeruginosa, L. acidophilus, and C. albicans for the various botanical compound samples, relative to the control. The percentage is based on the number of cells that adhered to the skin for the botanical samples as compared to the number of cells that adhered to the skin in the control, as determined by the AlamarBlue® levels. […]
The next day, the optical density (650 nm) of the Lactobacilli broth culture was read. […] AlamarBlue® levels were read (emission levels read at 590 nm) in an Ascent plate reader (excitation level of 544 nm) at 2 and 3 hours. […]

[2] = tested on: S. epidermidis (ATCC #12228); assay: Adhesion assay for S. epidermidis on synthetic skin substrate; type: cell-based, Staphylococcus epidermidis; details: 50 μl of 10% botanical stock in TSB + 50 μl bacteria, 3 h room temperature, VITRO-SKIN, AlamarBlue
Experimental: (§2) The protocols for testing the ability of botanical compounds to elicit any of these desired effects are set forth in the Examples. In general, the ability of a botanical compound to affect the adherence of an organism to skin is determined by comparing the adherence of the organism to skin in the presence of the botanical compound, to the adherence of the organism to skin in the absence of the botanical compound. If the amount of adherence in the presence of the botanical compound is 150% or greater than the amount of adherence in the absence of the botanical compound, then the botanical compound is an adherence promoter for that organism. If the amount of adherence in the presence of the botanical compound is 50% or less than the amount of adherence in the absence of the botanical compound, then the botanical compound is an anti-adherent for that organism.
(§3) Each of the botanical compounds listed in Table 1 was screened to measure the effect of the compound on the adhesion of P. mirabilis, S. epidermidis, or P. aeruginosa to the skin. […]
(§4) The next day, the optical density (650 nm) of the TSB culture was read. […] AlamarBlue® levels were read (emission levels read at 590 nm) in an Ascent plate reader (excitation level of 544 nm) at 1 and 2 hours. When not being read, the plate was incubated at 37° C. with a lid. […]

[3] = tested on: C. albicans (ATCC #10231); assay: Adhesion assay for Candida albicans on synthetic skin substrate; type: cell-based; details: 50 μl of 10% botanical stock in TSB + 50 μl yeast, 3 h at 33° C., VITRO-SKIN, AlamarBlue
Experimental: as §2, §1
The next day, the optical density (650 nm) of the SDB culture was read. […]

[4] = tested on: P. aeruginosa (ATCC #27853); assay: Adhesion assay for P. aeruginosa on synthetic skin substrate; type: cell-based, Pseudomonas aeruginosa; details: 50 μl of 10% botanical stock in TSB + 50 μl bacteria, 3 h room temperature, VITRO-SKIN, AlamarBlue
Experimental: as §2, §3, §4

[5] = tested on: P. mirabilis (ATCC #29906); assay: Adhesion assay for P. mirabilis on synthetic skin substrate; type: cell-based, Proteus mirabilis; details: 50 μl of 10% botanical stock in TSB + 50 μl bacteria, 3 h room temperature, VITRO-SKIN, AlamarBlue; >100% more cells adhered than control
Experimental: as §2, §3, §4

Structure (SMILES): CCCC(O)CO (centres unmarked) [Hydrolite-5]
- percent adherence to the skin of L. acidophilus (LA) relative to the control [1]: 169.66%
- percent adherence to the skin of S. epidermidis (SE) relative to the control [2]: 141.5%
- percent adherence to the skin of C. albicans (CA) relative to the control [3]: 3.9%
- percent adherence to the skin of P. aeruginosa (PA) relative to the control [4]: 5.1%
- percent adherence to the skin of P. mirabilis (PM) relative to the control [5]: 9.2%
